Assay results: patent publication US20260364080A1, “PYRAZOLO-PYRIMIDINONE COMPOUNDS FOR USE IN METHODS OF INHIBITING WEE1 A KINASE” (Acrivon Therapeutics, Inc., priority 2023, published 2026)
pEC50, pIC50: −log10 of the molar value. Read-outs that look alike come from different tables or passages of the source. Values belong to the compound of their own block, whether it stands above or below them.

Columns and labels:
[1] = target: T1, recombinant human Wee1A kinase (Homo sapiens, UniProt P30291); assay: Wee1A kinase binding assay (LanthaScreen Eu time-resolved FRET)
T1 construct: full length Wee1 kinase was expressed by baculovirus in insect cells; purchased Invitrogen PV3817; host or cells: insect cells (baculovirus)
T1 sequence (P30291 whole entry): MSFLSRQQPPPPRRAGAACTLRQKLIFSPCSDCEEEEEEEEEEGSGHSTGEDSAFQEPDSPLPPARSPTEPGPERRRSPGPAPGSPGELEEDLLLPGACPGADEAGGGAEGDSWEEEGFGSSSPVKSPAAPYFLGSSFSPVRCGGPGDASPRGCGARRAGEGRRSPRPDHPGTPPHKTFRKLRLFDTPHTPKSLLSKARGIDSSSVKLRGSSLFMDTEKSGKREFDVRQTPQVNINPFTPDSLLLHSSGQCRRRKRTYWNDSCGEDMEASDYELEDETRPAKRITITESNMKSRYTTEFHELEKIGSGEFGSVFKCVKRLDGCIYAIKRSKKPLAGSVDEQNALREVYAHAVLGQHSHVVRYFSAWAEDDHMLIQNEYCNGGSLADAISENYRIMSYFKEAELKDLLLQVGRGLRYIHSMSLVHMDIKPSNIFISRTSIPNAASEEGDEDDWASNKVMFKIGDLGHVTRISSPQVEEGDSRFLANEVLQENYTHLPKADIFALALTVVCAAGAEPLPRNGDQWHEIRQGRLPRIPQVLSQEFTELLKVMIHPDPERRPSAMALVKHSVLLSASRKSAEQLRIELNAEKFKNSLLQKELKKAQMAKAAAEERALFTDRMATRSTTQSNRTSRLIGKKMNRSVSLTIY
Method in brief: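 Full-length, baculovirus-expressed GST-tagged Wee1A (5 nM) was mixed with 2 nM Eu-anti-GST antibody, 30 nM kinase tracer 178 and compound (1% DMSO). Buffer was 50 mM HEPES pH 7.5, 10 mM MgCl2, 1 mM EGTA, 0.01% Brij-35, incubated 60 min at room temperature. TR-FRET 665/615 nm emission ratios from duplicates were curve-fitted.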

[2] = target: T2, Myt1 kinase (recombinant PMYT-1) (Homo sapiens, UniProt Q99640); assay: Myt1 kinase binding assay (LanthaScreen Eu Kinase Binding Assay)
T2 construct: full length PMYT-1 was expressed by baculovirus in insect cells; purchased Invitrogen A30984; host or cells: insect cells (baculovirus)
T2 sequence (Q99640 1-499): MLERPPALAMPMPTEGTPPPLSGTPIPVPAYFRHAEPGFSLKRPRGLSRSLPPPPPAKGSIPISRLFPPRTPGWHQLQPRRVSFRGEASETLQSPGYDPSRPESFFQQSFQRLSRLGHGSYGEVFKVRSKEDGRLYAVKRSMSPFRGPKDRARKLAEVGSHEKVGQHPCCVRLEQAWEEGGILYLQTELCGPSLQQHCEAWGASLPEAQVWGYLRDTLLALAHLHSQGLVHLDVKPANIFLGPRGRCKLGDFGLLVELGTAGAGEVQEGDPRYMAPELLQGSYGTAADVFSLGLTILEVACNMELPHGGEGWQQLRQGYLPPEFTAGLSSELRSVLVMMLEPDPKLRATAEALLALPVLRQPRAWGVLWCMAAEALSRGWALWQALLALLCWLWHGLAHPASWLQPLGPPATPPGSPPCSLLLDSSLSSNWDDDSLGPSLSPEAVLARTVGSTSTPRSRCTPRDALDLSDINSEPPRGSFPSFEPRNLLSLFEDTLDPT
Method in brief: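 The binding affinity of compounds for Myt1 kinase was measured with a LanthaScreen Europium (Eu) Kinase Binding Assay, a time-resolved FRET format in which test compounds compete against a labeled kinase tracer, and the results were expressed as IC50 values describing compound binding to Myt1.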

[3] = target: T3, Wee1A kinase (CDK1 Tyr15 phosphorylation in ACHN renal cell carcinoma cells) (Homo sapiens, UniProt P30291); assay: High-content imaging of pCdk1 Y15, Wee1A kinase target engagement in ACHN cells; assay type: cell-based
T3 construct: pCDK1 Tyr15 immunofluorescence read-out
T3 sequence (P30291 whole entry): as the sequence (P30291 whole entry) above
Method in brief: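 ACHN cells exposed to compound for 4 h over 7–5,000 nM or 0.3–200 nM, then fixed and immunostained for pCDK1 Y15 with DAPI nuclear counterstain. The percentage of pCdk1 Y15 nucleus-positive cells relative to DMSO control was imaged per well; EC50 from dose-response curves.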

[4] = Myt1 kinase Binding IC50, 3 nM tracer 178, 2.5 nM PMYT-1, 1 nM Eu-labeled antibody
[5] = read-out: CDK1 Tyr15 Phosphorylation EC50, 4 h treatment, nuclear positivity for pCdk1 Y15 vs DMSO control
[6] = 30 nM tracer 178, 5 nM Wee1A kinase, 2 nM Eu-labeled antibody, 60 minutes at room temperature, read-out: Wee1A kinase Binding IC50
[7] = 3 nM tracer 178, 2.5 nM PMYT-1, 1 nM Eu-labeled antibody, read-out: Myt1 kinase Binding IC50
[8] = 4 h treatment, nuclear positivity for pCdk1 Y15 vs DMSO control, read-out: CDK1 Tyr15 Phosphorylation EC50

SMILES: C=CCn1c(=O)c2cnc(Nc3cnn(CC(C)(C)F)c3)nc2n1-c1cccc(N(C)C2CCN(C)CC2)n1 [Compound 185, 6-{[1-(2-fluoro-2-methylpropyl)-1H-pyrazol-4-yl]amino}-1-{6-[methyl(1-methylpiperidin-4-yl)amino]pyridin-2-yl}-2-(prop-2-en-1-yl)-1H,2H,3H-pyrazolo[3,4-d]pyrimidin-3-one]
pIC50 [1]: > 8.00 | pIC50 [2, 4]: < 6.30 | pEC50 [3, 5]: 6.00 to 6.30

SMILES: C=CCn1c(=O)c2cnc(Nc3cnn(C(C)C)c3)nc2n1-c1cccc(N(C)C2CCNCC2)n1 [Compound 169, 1-{6-[methyl(piperidin-4-yl)amino]pyridin-2-yl}-2-(prop-2-en-1-yl)-6-{[1-(propan-2-yl)-1H-pyrazol-4-yl]amino}-1H,2H,3H-pyrazolo[3,4-d]pyrimidin-3-one]
pIC50 [1]: > 8.00 | pIC50 [2, 4]: < 6.30 | pEC50 [3, 5]: < 6.00

SMILES: C=CCn1c(=O)c2cnc(Nc3cc(C)cc(F)c3)nc2n1-c1cccc(NC2CCNCC2)n1 [Compound 160, 2-allyl-6-(3-fluoro-5-toluidino)-1-[6-(4-piperidylamino)-2-pyridyl]-1,2-dihydro-3H-1,2,5,7-tetraazainden-3-one]
pIC50 [1, 6]: > 8.00 | pIC50 [2, 7]: 6.30 to 7.00 | pEC50 [3, 8]: 6.30 to 7.00

SMILES: CCn1c(=O)c2cnc(Nc3ccc(F)cc3)nc2n1-c1cccc(OC2CCNCC2)n1 [Compound 297, 2-ethyl-6-(p-fluorophenylamino)-1-[6-(4-piperidyloxy)-2-pyridyl]-1,2-dihydro-3H-1,2,5,7-tetraazainden-3-one]
pIC50 [1, 6]: > 8.00 | pIC50 [2, 7]: 6.30 to 7.00 | pEC50 [3, 8]: 6.30 to 7.00

SMILES: CCn1c(=O)c2cnc(Nc3cccc(-c4cccnc4)c3)nc2n1-c1cccc(OC2CCN(C)CC2)n1 [Compound 352, 2-ethyl-1-[6-(1-methyl-4-piperidyloxy)-2-pyridyl]-6-[m-(3-pyridyl)phenylamino]-1,2-dihydro-3H-1,2,5,7-tetraazainden-3-one]
pIC50 [1, 6]: > 8.00 | pIC50 [2, 7]: 7.00 to 7.70 | pEC50 [3, 8]: > 7.00

SMILES: C=CCn1c(=O)c2cnc(Nc3ccc(Cl)cc3)nc2n1-c1cccc(N(C)C2CCNCC2)n1 [Compound 156, 6-[(4-chlorophenyl)amino]-1-{6-[methyl(piperidin-4-yl)amino]pyridin-2-yl}-2-(prop-2-en-1-yl)-1H,2H,3H-pyrazolo[3,4-d]pyrimidin-3-one]
pIC50 [1]: > 8.00 | pIC50 [2, 4]: 6.30 to 7.00 | pEC50 [3, 5]: 6.00 to 6.30

SMILES: C=CCn1c(=O)c2cnc(Nc3cccc(-n4cccn4)c3)nc2n1-c1cccc(OC2CCNCC2)n1 [Compound 363, 2-allyl-1-[6-(4-piperidyloxy)-2-pyridyl]-6-[m-(1-pyrazolyl)phenylamino]-1,2-dihydro-3H-1,2,5,7-tetraazainden-3-one]
pIC50 [1, 6]: > 8.00 | pIC50 [2, 7]: 7.00 to 7.70 | pEC50 [3, 8]: 6.30 to 7.00

SMILES: C=CCn1c(=O)c2cnc(Nc3cncc(F)c3)nc2n1-c1cccc(OC2CCN(C)CC2)n1 [Compound 327, 2-allyl-6-(5-fluoro-3-pyridylamino)-1-[6-(1-methyl-4-piperidyloxy)-2-pyridyl]-1,2-dihydro-3H-1,2,5,7-tetraazainden-3-one]
pIC50 [1, 6]: > 8.00 | pIC50 [2, 7]: 7.00 to 7.70 | pEC50 [3, 8]: 6.30 to 7.00

SMILES: C=CCn1c(=O)c2cnc(Nc3ccc4c(cnn4C)c3)nc2n1-c1cccc(N[C@@H]2CCN(C)C2)n1 [Compound 115]
pIC50 [1, 6]: > 8.00 | pIC50 [2, 7]: 7.00 to 7.70 | pEC50 [3, 8]: > 7.00

Other lines, results leading:

pIC50 [1, 6]: > 8.00 | pIC50 [2, 7]: 7.00 to 7.70 | pEC50 [3, 8]: > 7.00
SMILES: CCn1c(=O)c2cnc(Nc3ccc4c(ccn4C)c3)nc2n1-c1cccc(OC2CCNCC2)n1 [Compound 353, 2-ethyl-6-((1-methyl-1H-indol-5-yl)amino)-1-(6-(piperidin-4-yloxy)pyridin-2-yl)-1,2-dihydro-3H-pyrazolo[3,4-d]pyrimidin-3-one]

pIC50 [1, 6]: > 8.00 | pIC50 [2, 7]: 6.30 to 7.00 | pEC50 [3, 8]: 6.00 to 6.30
SMILES: C=CCn1c(=O)c2cnc(Nc3ccccc3)nc2n1-c1cccc(NC2CCNCC2)n1 [Compound 123, 6-(phenylamino)-1-{6-[(piperidin-4-yl)amino]pyridin-2-yl}-2-(prop-2-en-1-yl)-1H,2H,3H-pyrazolo[3,4-d]pyrimidin-3-one]

pIC50 [1, 6]: > 8.00 | pIC50 [2, 7]: 6.30 to 7.00 | pEC50 [3, 8]: 6.30 to 7.00
SMILES: C=CCn1c(=O)c2cnc(Nc3ccc(F)c(C)c3)nc2n1-c1cccc(NC2CCNCC2)n1 [Compound 128, 2-allyl-6-(4-fluoro-3-toluidino)-1-[6-(4-piperidylamino)-2-pyridyl]-1,2-dihydro-3H-1,2,5,7-tetraazainden-3-one]

pIC50 [1, 6]: > 8.00 | pIC50 [2, 7]: 6.30 to 7.00 | pEC50 [3, 8]: 6.30 to 7.00
SMILES: C=CCn1c(=O)c2cnc(Nc3ccc4c(cnn4C)c3)nc2n1-c1cccc(O[C@H]2CCN(C)[C@H](C)C2)n1 (stereo in doubt) [Compound 380, rel-2-allyl-1-(6-(((2R,4S)-1,2-dimethylpiperidin-4-yl)oxy)pyridin-2-yl)-6-((1-methyl-1H-indazol-5-yl)amino)-1,2-dihydro-3H-pyrazolo[3,4-d]pyrimidin-3-one]

pIC50 [1, 6]: > 8.00 | pIC50 [2, 7]: > 7.70 | pEC50 [3, 8]: 6.30 to 7.00
SMILES: CCn1c(=O)c2cnc(Nc3ccc(Br)cc3)nc2n1-c1cccc(OC2CCN(C)CC2)n1 [Compound 268, 6-(p-bromophenylamino)-2-ethyl-1-[6-(1-methyl-4-piperidyloxy)-2-pyridyl]-1,2-dihydro-3H-1,2,5,7-tetraazainden-3-one]

pIC50 [1, 6]: > 8.00 | pIC50 [2, 7]: 7.00 to 7.70 | pEC50 [3, 8]: 6.30 to 7.00
SMILES: C=CCn1c(=O)c2cnc(Nc3cncc(OC)c3)nc2n1-c1cccc(OC2CCN(C)CC2)n1 [Compound 342, 6-[(5-methoxypyridin-3-yl)amino]-1-{6-[(1-methylpiperidin-4-yl)oxy]pyridin-2-yl}-2-(prop-2-en-1-yl)-1H,2H,3H-pyrazolo[3,4-d]pyrimidin-3-one]

pIC50 [1, 6]: > 8.00 | pIC50 [2, 7]: 6.30 to 7.00 | pEC50 [3, 8]: < 6.00
SMILES: CCn1c(=O)c2cnc(Nc3cccc(-c4cnn(C)c4)c3)nc2n1-c1cccc(OC2CCNCC2)n1 [Compound 340, 2-ethyl-6-[m-(1-methyl-4-pyrazolyl)phenylamino]-1-[6-(4-piperidyloxy)-2-pyridyl]-1,2-dihydro-3H-1,2,5,7-tetraazainden-3-one]

pIC50 [1, 6]: > 8.00 | pIC50 [2, 7]: 6.30 to 7.00 | pEC50 [3, 8]: < 6.00
SMILES: C=CCn1c(=O)c2cnc(Nc3ccc(C#N)c(C)c3)nc2n1-c1cccc(NC2CCNCC2)n1 [Compound 134, 2-methyl-4-[(3-oxo-1-{6-[(piperidin-4-yl)amino]pyridin-2-yl}-2-(prop-2-en-1-yl)-1H,2H,3H-pyrazolo[3,4-d]pyrimidin-6-yl)amino]benzonitrile]

pIC50 [1, 6]: > 8.00 | pIC50 [2, 7]: 7.00 to 7.70 | pEC50 [3, 8]: 6.00 to 6.30
SMILES: Cn1c(=O)c2cnc(Nc3ccc(Cl)cc3)nc2n1-c1cccc(OC2CCNCC2)n1 [Compound 153, 6-(p-chlorophenylamino)-2-methyl-1-[6-(4-piperidyloxy)-2-pyridyl]-1,2-dihydro-3H-1,2,5,7-tetraazainden-3-one]

pIC50 [1, 6]: > 8.00 | pIC50 [2, 7]: 6.30 to 7.00 | pEC50 [3, 8]: 6.00 to 6.30
SMILES: C=CCn1c(=O)c2cnc(Nc3ccc4c(cnn4C)c3)nc2n1-c1cccc(NC2CCNCC2)n1 [Compound 122, 6-[(1-methyl-1H-indazol-5-yl)amino]-1-{6-[(piperidin-4-yl)amino]pyridin-2-yl}-2-(prop-2-en-1-yl)-1H,2H,3H-pyrazolo[3,4-d]pyrimidin-3-one]
